One may read the Kd as a measure of binding affinity in units of concentration.

The source made the active and inactive calls. Cut-off read from the data, not from the text of the source, for most assays here: actives have a measured Kd and inactives only a lower limit.

For experiment [1], the target named is T1, Serine/threonine-protein kinase Nek3 (Homo sapiens, UniProt P51956).
T1 sequence (P51956 whole entry): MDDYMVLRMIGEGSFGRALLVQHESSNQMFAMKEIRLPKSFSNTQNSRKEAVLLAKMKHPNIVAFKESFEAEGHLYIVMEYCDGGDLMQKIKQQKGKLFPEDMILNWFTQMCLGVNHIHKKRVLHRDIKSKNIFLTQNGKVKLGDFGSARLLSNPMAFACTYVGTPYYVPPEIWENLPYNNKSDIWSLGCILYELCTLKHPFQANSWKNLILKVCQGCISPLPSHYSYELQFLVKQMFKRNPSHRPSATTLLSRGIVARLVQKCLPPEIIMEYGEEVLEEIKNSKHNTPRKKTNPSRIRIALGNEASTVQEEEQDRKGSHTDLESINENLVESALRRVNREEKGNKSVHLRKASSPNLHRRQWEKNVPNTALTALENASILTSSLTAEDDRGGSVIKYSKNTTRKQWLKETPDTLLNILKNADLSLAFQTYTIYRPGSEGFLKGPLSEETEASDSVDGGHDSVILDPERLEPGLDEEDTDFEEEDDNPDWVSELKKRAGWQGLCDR

Experiment [2] concerns the target T2, Serine/threonine-protein kinase 4 (Homo sapiens, UniProt Q13043).
T2 sequence (Q13043 whole entry): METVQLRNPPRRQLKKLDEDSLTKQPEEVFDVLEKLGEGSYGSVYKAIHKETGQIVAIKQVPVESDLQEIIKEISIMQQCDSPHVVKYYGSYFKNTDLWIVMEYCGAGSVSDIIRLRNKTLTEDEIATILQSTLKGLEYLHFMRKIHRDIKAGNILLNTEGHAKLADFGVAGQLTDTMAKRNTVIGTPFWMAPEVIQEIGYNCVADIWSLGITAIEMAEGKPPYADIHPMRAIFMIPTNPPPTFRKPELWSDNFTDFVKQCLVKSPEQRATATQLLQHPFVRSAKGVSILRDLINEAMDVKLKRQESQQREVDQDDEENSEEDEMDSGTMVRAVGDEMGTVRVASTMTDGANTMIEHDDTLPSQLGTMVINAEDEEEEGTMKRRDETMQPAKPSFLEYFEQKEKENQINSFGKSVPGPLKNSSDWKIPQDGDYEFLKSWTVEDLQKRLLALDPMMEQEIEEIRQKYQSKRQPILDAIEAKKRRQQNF

Experiment [3] addresses Mitogen-activated protein kinase kinase kinase kinase 5 (Homo sapiens, UniProt Q9Y4K4).
The target of experiment [4] is T3, Ras-related protein Rab-10 (Homo sapiens, UniProt P61026).
T3 sequence (P61026 whole entry): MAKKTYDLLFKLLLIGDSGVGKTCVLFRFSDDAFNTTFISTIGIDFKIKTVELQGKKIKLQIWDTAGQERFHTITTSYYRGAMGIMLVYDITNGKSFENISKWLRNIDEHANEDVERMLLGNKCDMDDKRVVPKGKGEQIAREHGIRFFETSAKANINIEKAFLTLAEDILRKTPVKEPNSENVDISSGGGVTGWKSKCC

For experiment [5], the target named is Ribosomal protein S6 kinase alpha-4 (Homo sapiens, UniProt O75676).
Experiment [6] addresses T4, Bifunctional phosphoribosylaminoimidazole carboxylase/phosphoribosylaminoimidazole succinocarboxamide synthetase (Homo sapiens, UniProt P22234).
T4 sequence (P22234 whole entry): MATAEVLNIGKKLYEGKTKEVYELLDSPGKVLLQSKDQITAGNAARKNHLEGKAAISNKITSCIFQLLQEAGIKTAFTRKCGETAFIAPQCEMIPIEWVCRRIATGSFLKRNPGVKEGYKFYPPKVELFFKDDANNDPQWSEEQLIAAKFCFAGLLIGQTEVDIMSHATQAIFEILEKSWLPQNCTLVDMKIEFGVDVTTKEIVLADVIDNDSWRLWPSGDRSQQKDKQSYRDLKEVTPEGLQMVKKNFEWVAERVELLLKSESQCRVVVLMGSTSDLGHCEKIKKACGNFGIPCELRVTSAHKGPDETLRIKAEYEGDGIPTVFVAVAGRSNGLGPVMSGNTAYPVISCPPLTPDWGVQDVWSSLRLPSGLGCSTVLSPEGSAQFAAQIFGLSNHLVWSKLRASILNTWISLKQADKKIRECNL

Experiment [7] has as its target T5, Serine/threonine-protein kinase TAO3 (Homo sapiens, UniProt Q9H2K8).
T5 sequence (Q9H2K8 whole entry): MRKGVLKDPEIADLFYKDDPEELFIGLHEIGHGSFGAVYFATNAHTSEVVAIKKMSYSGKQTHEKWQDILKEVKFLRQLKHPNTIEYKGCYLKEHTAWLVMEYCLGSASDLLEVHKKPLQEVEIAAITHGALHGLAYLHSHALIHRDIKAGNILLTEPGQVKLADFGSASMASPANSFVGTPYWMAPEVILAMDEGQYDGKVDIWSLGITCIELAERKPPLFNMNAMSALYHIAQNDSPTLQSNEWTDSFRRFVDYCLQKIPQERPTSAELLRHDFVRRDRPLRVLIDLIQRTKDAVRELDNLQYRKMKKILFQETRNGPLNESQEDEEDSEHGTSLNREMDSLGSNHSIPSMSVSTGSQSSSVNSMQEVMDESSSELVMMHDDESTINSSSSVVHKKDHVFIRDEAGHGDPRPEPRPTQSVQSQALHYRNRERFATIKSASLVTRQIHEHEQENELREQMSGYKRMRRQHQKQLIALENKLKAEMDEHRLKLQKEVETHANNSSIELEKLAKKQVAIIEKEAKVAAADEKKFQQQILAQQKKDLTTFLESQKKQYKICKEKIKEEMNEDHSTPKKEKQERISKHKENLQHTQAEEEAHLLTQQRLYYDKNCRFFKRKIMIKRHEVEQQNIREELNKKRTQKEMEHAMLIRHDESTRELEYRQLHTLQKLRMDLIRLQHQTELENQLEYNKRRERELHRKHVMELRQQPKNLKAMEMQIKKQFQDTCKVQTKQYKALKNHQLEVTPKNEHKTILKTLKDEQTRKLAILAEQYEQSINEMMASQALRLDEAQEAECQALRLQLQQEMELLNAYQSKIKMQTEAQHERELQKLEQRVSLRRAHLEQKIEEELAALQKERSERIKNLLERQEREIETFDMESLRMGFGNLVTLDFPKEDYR

Experiment [8] concerns the target Rho-associated protein kinase 2 (Homo sapiens, UniProt O75116).
The target in experiment [9] is Eukaryotic translation initiation factor 2-alpha kinase 1 (Homo sapiens, UniProt Q9BQI3).
In experiment [10] the target is Serine/threonine-protein kinase MRCK beta (Homo sapiens, UniProt Q9Y5S2).
Experiment [11] concerns the target Cyclin-dependent kinase 6 (Homo sapiens, UniProt Q00534).
Note: in the data inactive means no Kd found up to 30 µM.

Chain of Mitogen-activated protein kinase kinase kinase kinase 5 (Q9Y4K4 whole entry): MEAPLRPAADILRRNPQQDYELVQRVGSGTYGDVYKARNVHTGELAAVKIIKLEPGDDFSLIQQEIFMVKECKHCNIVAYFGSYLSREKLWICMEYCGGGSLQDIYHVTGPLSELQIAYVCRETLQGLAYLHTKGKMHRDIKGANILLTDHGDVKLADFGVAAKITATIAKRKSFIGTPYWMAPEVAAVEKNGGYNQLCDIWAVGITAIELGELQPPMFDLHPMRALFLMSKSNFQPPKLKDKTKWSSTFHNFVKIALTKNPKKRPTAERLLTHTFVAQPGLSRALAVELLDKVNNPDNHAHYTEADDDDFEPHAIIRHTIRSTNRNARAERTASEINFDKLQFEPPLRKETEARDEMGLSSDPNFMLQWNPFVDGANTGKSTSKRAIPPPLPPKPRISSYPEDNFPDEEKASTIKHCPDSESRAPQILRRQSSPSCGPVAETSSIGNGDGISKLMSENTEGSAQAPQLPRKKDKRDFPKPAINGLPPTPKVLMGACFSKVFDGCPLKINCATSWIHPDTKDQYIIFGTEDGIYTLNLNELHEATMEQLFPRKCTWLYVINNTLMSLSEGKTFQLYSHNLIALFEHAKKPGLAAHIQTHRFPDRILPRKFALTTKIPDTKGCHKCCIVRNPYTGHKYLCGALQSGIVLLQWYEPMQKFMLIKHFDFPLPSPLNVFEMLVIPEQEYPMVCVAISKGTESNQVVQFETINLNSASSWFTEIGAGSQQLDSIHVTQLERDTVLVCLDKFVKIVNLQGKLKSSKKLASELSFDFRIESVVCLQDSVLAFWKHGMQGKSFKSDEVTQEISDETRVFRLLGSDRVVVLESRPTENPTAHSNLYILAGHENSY
Chain of Rho-associated protein kinase 2 (O75116 whole entry): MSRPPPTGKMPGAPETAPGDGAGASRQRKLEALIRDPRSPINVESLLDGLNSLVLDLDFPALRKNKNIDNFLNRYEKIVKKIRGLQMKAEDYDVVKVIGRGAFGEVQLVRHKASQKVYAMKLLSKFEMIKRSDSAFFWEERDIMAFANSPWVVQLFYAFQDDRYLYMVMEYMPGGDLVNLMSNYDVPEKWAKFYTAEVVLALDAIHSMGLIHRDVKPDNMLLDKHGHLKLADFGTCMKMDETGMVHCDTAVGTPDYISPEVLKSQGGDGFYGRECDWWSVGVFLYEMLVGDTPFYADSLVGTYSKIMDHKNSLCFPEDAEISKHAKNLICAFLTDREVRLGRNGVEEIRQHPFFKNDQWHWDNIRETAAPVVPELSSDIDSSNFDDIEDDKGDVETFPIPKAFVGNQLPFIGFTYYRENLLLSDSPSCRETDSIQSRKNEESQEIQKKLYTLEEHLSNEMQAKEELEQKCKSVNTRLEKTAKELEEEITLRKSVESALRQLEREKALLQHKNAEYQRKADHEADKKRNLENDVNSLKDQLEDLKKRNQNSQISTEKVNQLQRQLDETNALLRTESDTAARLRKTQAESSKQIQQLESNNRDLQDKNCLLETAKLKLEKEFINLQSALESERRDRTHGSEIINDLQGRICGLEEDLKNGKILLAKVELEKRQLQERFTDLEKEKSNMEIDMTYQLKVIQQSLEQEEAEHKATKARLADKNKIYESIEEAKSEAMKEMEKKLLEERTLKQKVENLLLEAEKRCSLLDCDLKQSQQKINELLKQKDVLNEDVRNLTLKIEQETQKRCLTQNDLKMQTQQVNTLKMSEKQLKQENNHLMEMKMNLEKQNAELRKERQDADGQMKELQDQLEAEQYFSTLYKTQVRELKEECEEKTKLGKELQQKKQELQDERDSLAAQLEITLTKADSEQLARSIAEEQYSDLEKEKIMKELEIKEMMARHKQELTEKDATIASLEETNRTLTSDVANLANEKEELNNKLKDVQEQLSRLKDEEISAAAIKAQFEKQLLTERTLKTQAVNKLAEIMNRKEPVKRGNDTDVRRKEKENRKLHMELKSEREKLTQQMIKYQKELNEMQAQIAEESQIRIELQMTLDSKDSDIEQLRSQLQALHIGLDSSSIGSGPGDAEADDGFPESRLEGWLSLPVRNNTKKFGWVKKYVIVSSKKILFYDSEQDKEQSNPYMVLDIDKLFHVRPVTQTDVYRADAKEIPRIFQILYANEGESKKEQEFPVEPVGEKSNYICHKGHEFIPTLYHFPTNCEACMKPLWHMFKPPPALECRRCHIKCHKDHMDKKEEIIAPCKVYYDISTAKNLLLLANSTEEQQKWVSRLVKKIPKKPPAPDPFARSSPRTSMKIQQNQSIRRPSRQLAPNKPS
Chain of Ribosomal protein S6 kinase alpha-4 (O75676 whole entry): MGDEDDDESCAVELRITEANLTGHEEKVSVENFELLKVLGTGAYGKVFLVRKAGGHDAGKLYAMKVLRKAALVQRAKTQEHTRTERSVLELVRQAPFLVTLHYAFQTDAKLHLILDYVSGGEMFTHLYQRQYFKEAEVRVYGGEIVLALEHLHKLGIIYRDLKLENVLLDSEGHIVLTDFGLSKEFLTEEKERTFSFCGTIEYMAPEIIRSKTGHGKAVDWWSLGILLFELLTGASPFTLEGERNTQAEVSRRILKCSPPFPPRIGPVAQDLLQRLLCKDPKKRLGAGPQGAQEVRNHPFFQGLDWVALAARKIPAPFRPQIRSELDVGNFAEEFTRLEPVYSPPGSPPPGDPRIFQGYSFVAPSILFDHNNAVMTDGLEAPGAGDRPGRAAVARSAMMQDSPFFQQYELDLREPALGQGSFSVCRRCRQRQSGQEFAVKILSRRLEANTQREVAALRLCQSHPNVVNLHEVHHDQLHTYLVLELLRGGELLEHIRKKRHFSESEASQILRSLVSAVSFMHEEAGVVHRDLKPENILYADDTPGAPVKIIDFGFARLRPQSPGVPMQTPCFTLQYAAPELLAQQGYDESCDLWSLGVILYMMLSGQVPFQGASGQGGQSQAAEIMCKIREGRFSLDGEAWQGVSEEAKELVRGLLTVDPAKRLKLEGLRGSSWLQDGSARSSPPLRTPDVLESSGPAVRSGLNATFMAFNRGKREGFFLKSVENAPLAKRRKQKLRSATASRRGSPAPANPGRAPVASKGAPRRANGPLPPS
Chain of Cyclin-dependent kinase 6 (Q00534 whole entry): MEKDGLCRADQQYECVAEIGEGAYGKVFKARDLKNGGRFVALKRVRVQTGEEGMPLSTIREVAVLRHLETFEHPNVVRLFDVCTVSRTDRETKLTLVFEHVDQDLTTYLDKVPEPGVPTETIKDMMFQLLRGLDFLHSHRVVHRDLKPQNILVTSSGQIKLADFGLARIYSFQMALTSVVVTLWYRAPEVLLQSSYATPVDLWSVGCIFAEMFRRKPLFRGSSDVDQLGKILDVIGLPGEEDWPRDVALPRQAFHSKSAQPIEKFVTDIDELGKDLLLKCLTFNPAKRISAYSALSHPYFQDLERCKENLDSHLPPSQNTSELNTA
Chain of Serine/threonine-protein kinase MRCK beta (Q9Y5S2 whole entry): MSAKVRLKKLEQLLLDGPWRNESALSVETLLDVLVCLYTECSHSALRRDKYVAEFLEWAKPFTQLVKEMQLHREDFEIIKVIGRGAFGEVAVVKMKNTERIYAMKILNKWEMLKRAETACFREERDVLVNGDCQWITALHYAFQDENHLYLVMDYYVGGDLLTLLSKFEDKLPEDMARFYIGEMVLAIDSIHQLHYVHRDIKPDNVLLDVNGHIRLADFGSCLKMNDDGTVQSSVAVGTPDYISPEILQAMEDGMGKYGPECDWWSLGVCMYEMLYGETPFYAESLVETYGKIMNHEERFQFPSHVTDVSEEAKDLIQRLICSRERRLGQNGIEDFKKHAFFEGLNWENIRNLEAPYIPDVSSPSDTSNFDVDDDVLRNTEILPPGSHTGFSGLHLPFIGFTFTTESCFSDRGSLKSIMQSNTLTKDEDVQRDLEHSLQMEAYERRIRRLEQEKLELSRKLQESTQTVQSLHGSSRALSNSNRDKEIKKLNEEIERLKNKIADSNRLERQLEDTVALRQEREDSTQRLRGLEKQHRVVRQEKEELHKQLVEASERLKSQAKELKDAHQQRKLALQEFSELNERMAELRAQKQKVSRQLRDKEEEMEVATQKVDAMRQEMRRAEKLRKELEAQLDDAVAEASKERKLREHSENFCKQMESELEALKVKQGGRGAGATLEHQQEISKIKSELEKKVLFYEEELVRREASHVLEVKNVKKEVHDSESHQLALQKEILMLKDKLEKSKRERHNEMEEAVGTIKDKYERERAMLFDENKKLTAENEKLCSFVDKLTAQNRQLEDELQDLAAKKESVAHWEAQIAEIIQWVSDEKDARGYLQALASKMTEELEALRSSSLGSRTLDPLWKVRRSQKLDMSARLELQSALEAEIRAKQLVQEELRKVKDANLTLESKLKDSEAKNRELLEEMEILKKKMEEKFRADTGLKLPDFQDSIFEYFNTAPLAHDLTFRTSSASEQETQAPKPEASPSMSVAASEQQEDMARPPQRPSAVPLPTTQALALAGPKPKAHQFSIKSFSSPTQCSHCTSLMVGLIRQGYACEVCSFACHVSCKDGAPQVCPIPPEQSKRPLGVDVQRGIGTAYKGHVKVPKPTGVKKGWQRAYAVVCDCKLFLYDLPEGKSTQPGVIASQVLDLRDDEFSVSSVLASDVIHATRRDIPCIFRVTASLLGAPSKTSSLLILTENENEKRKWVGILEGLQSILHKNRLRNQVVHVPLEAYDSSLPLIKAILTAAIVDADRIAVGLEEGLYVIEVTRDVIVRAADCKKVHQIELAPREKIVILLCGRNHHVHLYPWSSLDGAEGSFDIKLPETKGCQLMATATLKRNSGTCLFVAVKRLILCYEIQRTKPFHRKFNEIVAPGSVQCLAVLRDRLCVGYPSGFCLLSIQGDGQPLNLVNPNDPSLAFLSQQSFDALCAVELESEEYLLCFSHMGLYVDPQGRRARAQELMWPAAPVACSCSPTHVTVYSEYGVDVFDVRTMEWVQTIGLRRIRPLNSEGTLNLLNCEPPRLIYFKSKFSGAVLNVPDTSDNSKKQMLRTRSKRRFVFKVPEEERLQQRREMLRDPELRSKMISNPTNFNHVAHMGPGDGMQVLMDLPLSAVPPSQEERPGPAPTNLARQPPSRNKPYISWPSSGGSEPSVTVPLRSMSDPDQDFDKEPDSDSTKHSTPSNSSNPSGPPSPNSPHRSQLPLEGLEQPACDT

Regarding `Cc1ccc(S(=O)(=O)Nc2nc3ccccc3nc2Nc2ccc3nsnc3c2)cc1`, the Kd in experiment [1], in [2], in experiment [3], in experiment [4], in [5] and in [6] was > 30 µM (inactive) in each case. Besides, the Kd in experiment [7], in experiment [8], in [9], in [10] and in experiment [11] was > 30 µM (inactive) throughout.
In the case of `Cn1cc(-c2ccc(F)c(C(F)(F)F)c2)nc1C1CCN(c2ncnc3[nH]ncc23)CC1` [LY-2584702], the Kd in experiment [1], in experiment [2], in [3], in [4], in experiment [5] and in [6] was > 30 µM (inactive) in each case. Besides, the Kd in experiment [7], in [8], in experiment [9], in [10] and in experiment [11] was > 30 µM (inactive) in each case.
With `COc1cc(OC)c(/C=C/S(=O)(=O)Cc2ccc(OC)c(NCC(=O)O)c2)c(OC)c1` [RIGOSERTIB], the Kd in experiment [1], in experiment [2], in [3], in experiment [4], in [5] and in experiment [6] was > 30 µM (inactive) throughout. In addition, the Kd in experiment [7], in [8], in experiment [9], in experiment [10] and in experiment [11] was > 30 µM (inactive) throughout.
Regarding `CCn1c(=O)c(-c2cc[nH]n2)cc2c(C)nc(N)nc21` [VOXTALISIB], the Kd in experiment [1], in experiment [2], in [3], in experiment [4], in experiment [5] and in [6] was > 30 µM (inactive) in each case. The Kd in experiment [7], in experiment [8], in experiment [9], in experiment [10] and in experiment [11] was > 30 µM (inactive) each time.
Take `OCCn1cc(-c2cnc3nnn(Cc4ccc5ncccc5c4)c3n2)cn1` [PF-04217903]: the Kd in experiment [1], in experiment [2], in [3], in experiment [4], in experiment [5] and in experiment [6] was > 30 µM (inactive) throughout. For the same compound, the Kd in experiment [7], in [8], in experiment [9], in experiment [10] and in [11] was > 30 µM (inactive) each time.
Consider `CO[C@H]1C[C@@H]2CC[C@@H](C)[C@@](O)(O2)C(=O)C(=O)N2CCCC[C@H]2C(=O)O[C@H]([C@H](C)C[C@@H]2CC[C@@H](OCCO)[C@H](OC)C2)CC(=O)[C@H](C)/C=C(\C)[C@@H](O)[C@@H](OC)C(=O)[C@H](C)C[C@H](C)/C=C/C=C/C=C/1C` [EVEROLIMUS], for which the Kd in [1], in [2], in experiment [3], in [4], in [5] and in experiment [6] was > 30 µM (inactive) throughout. In addition, the Kd in [7], in experiment [8], in [9], in experiment [10] and in experiment [11] was > 30 µM (inactive) in each case.
For the compound `CCCS(=O)(=O)Nc1ccc(F)c(C(=O)c2c[nH]c3ncc(-c4ccc(Cl)cc4)cc23)c1F` [VEMURAFENIB], the Kd in experiment [1] is > 30 µM (inactive); in experiment [2], > 30 µM (inactive); in experiment [3] it was 1.8 µM (active); in experiment [4], > 30 µM (inactive); in [5] it was > 30 µM (inactive); in experiment [6] it was > 30 µM (inactive). For the same compound, the Kd in experiment [7], in [8], in experiment [9], in [10] and in experiment [11] was > 30 µM (inactive) in each case.
As for `O=C(Nc1ccc(-c2ccnc(Nc3ccc(N4CCOCC4)cc3)n2)cc1)C1CCCN1` (centres undefined) [XL-019], the Kd in experiment [1] is 0.353 µM (active); in experiment [2], > 30 µM (inactive); in experiment [3], > 30 µM (inactive); in experiment [4], > 30 µM (inactive); in experiment [5], > 30 µM (inactive); in experiment [6] it was > 30 µM (inactive). The Kd was > 30 µM (inactive) in experiment [7]; 3.97 µM (active) in [8]; > 30 µM (inactive) in experiment [9]; > 30 µM (inactive) in [10]; > 30 µM (inactive) in experiment [11].
With `Cn1ncc(Cl)c1-c1cc(C(=O)N[C@H](CN)Cc2cccc(F)c2)sc1Cl` [AFURESERTIB], the Kd in experiment [1], in experiment [2], in [3], in experiment [4], in experiment [5] and in [6] was > 30 µM (inactive) each time. Besides, the Kd in experiment [7] is > 30 µM (inactive); in experiment [8], 4.73 µM (active); in experiment [9] it was > 30 µM (inactive); in experiment [10], > 30 µM (inactive); in experiment [11], > 30 µM (inactive).

(Values after ChEMBL document CHEMBL3991601, “The target landscape of clinical kinase drugs” (Science, 2017).)
